Patent US4343790A, “Controlled release acrylic polymer coated granular pesticidal compositions with attendant reduced dermal toxicity” (priority 1980, dated 1982)

Experiment: dermal toxicity of granular formulations (dermal LD50), male albino rabbits
Settings: rabbit, in vivo, topical or ocular, Table I, 24 h cuff, 14 days observation, O,O-diethyl S-{[(1,1-dimethylethyl)thio]methyl}phosphorodithioate
From the text: General method for the evaluation of dermal toxicity of the formulations of the present invention using male albino rabbits as the test animals
a. Five male albino rabbits weighing approximately 2.2 to 3.5 kilogram are selected for each dosage level. The hair is shaved from the entire trunk.
b. Saran tubing or "Vinylite" film VU1900, 30.5 cm (12") wide, 0.04 millimeter in thickness and long enough to fit around the rabbit.
c. One felt cloth bandage measuring approximately 22.9×45.7 cm (9"×18").
d. Four pieces of 3.8 cm (1.5") adhesive tape approximately 35.6 cm (14") long.
a. The granular material is placed in the center of the plastic film and is moistened with water.
b. The rabbits underside is moistened with water and the animals are placed belly down on the material.
c. The plastic is then brought up and around the animal and secured at each end with strips of adhesive tape. The felt cloth is then placed under the belly and brought up around the animal and secured to the body with the remaining two strips of adhesive tape.
Twenty-four hours after dosing, the "cuff" is removed and any remaining material is brushed away. If the test material cannot be removed, the animal is fitted with a fiber collar which prevents the animal from licking the treatment area. The animals are observed for 14 days, post dosing, noting signs of toxicity, skin irritation and mortality. […]

CCOP(=S)(OCC)SCSC(C)(C)C [O,O-diethyl S-{[(1,1-dimethylethyl)thio]methyl}phosphorodithioate]
LD50 at 336 h: 1 to 2 mg/kg
